Square brackets hold non-standard residues; d marks the D form. Peptide text beside a SMILES is read from it. ξ: configuration not given here. ξGly(decyl) = CCCCCCCCCCC(N)C(=O)O
Experiments:
[1] = In vitro metabolic stability in brain homogenate; assay type: in vitro ADME; conditions: mouse, male CD-1 mouse brain homogenate, 10 µM test compound
Experimental: (§1) Metabolic stability studies were carried out as reported before using freshly made brain homogenate (20% w/v) and plasma at 37 °C, in triplicate. For obtaining brain homogenates, a Bead Bug microtube homogenizer (Benchmark Scientific, Edison, NJ, USA) was used. For obtaining plasma, blood was collected in BD Vacutainer® Sodium Heparin tubes (Becton, Dickinson and Co., Franklin Lakes, NJ, USA) followed by centrifugation. Each biological matrix was spiked with compound (1) or TRH to create 10 µM solutions. KYP-2047, a POP inhibitor, was used in selected experiments at 50 µM concentration. Sample aliquots (100 µL) of TRH-containing matrices were removed after 2, 4, 6, 8, 10, 15, and 30 min, while sample aliquots (100 µL) of prodrug-containing matrices were obtained at 5, 10, 20, 30, 40, 60, 90, 120, and 210 min. Sample aliquots were added to 200 µL of acetic acid solution (20% v/v) in acetonitrile, thoroughly vortexed and, then, centrifuged before LC–MS/MS analysis. For LC separation, a Kinetex-C8 column (10 cm × 4.6 mm i.d., dp = 2.6 µm; Phenomenex; Torrance, CA, USA) with the eluent mixed from (A) H2O with 0.1% (v/v) formic acid and (B) acetonitrile with 0.1% (v/v) formic acid, flow rate of 400 µL/min, and gradient elution by a 10-min linear program from 0% B to 90% B were employed. Half-life (t1/2) values were calculated by assuming pseudo-first-order degradation.

[2] = In vitro metabolic stability in plasma; assay type: in vitro ADME; conditions: male CD-1 mouse plasma, 10 µM test compound, n = 3, ± SD; for half-life: mouse, plasma, read-out: t1/2 in Plasma
Experimental: as §1

[3] = 37 °C, n = 3, ± SD, read-out: t1/2 in 20% (w/v) Brain Homogenate

SMILES	half-life [1, 3] [h]	half-life ([1]; with POP inhibitor KYP-2047 at 50 µM, n = 3, read-out: t1/2 in 20% (w/v) Brain Homogenate) [h]	half-life ([2]; 37 °C) [h]	half-life ([2]; with POP inhibitor KYP-2047 at 50 µM) [h]	t1/2 in Plasma ([2]; with POP inhibitor KYP-2047 at 50 µM, listed as prodrug)
CCCCCCCCCCC(N)C(=O)NC(CCCCCCCCCC)C(=O)N1CCC[C@H]1C(=O)N1CCC[C@H]1C(=O)N[C@@H](CCC(N)=O)C(=O)N[C@@H](Cc1c[nH]cn1)C(=O)N1CCC[C@H]1C(N)=O (stereo partly drawn) [(1), C12-C12-Pro-Pro-Gln-His-Pro-NH2] (H-[ξGly(decyl)][ξGly(decyl)]PPQHP-NH2)	0.783 ± 0.1	> 24	1.67 ± 0.117	1.92 ± 0.217	did not change
NC(=O)[C@@H]1CCCN1C(=O)[C@H](Cc1cnc[nH]1)NC(=O)[C@@H]1CCC(=O)N1 [TRH, pGlu-His-Pro-NH2, reference compound]	< 0.0833		~0.117		
